In patent US20240067662A1, “KRAS INHIBITORS” (Bristol-Myers Squibb Company, priority 2022, published 2024):

Target: GMPPNP-loaded KRAS G12C (Homo sapiens, UniProt P01116, G12C)
Assay: KRAS G12C RAF Disruption Assay (HTRF)
Type: biochemical
Conditions: recombinant GMPPNP-loaded KRAS G12C (5 nM), 20 min with compound; GST-RAF1 RBD (9 nM); HTRF signal; read-out: KRASG12C RAF Disruption Assay (IC50)
Method in brief: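 GMPPNP-loaded KRAS G12C (5 nM) was preincubated with compound for 20 min at room temperature in Tris pH 7.5 buffer with NaCl, MgCl2, DTT and BSA. GST-RAF1 RBD (9 nM) was added for 20 min, then SA-Tb (0.25 nM) for 3 h. IC50 was fitted from the HTRF 520/495 ratio.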

Sequence of GMPPNP-loaded KRAS G12C (P01116 1-188 isoform P01116-2 G12C): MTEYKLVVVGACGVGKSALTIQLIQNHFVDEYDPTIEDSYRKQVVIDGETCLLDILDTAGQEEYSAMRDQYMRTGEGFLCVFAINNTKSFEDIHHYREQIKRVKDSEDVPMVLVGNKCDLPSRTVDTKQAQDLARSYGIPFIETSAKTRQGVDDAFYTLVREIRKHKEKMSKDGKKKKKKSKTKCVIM

Structure (SMILES) | IC50 [nM]
C#Cc1cccc2cccc(-c3ncc4c(N(C)C5CCN(C(=O)/C(F)=C/c6ccccn6)CC5)nc(OC[C@@]56CCCN5C[C@H](F)C6)nc4c3F)c12 [Compound 131, (Z)-1-(4-((7-(8-ethynylnaphthalen-1-yl)-8-fluoro-2-(((2R, 7aS)-2-fluorotetrahydro-1H-pyrrolizin-7a(5H)-yl)methoxy)pyrido[4,3-d]pyrimidin-4-yl)(methyl)amino)piperidin-1-yl)-2-fluoro-3-(pyridin-2-yl)prop-2-en-1-one] | 4200
C#Cc1cccc2cccc(-c3ncc4c(N(C)C5CCN(C(=O)/C(F)=C/c6nccs6)CC5)nc(OC[C@@]56CCCN5C[C@H](F)C6)nc4c3F)c12 [Compound 132, (Z)-1-(4-((7-(8-ethynylnaphthalen-1-yl)-8-fluoro-2-(((2R, 7aS)-2-fluorotetrahydro-1H-pyrrolizin-7a(5H)-yl)methoxy)pyrido[4,3-d]pyrimidin-4-yl)(methyl)amino)piperidin-1-yl)-2-fluoro-3-(thiazol-2-yl)prop-2-en-1-one] | 16800
N#Cc1cccc2[nH]cc(-c3ncc4c(N5CCN(C(=O)/C(F)=C/c6ccccn6)CC5)nc(OC[C@@]56CCCN5C[C@H](F)C6)nc4c3F)c12 [Compound 133, 3-(8-fluoro-4-(4-((Z)-2-fluoro-3-(pyridin-2-yl)acryloyl)piperazin-1-yl)-2-(((2R, 7aS)-2-fluorotetrahydro-1H-pyrrolizin-7a(5H)-yl)methoxy)pyrido[4,3-d]pyrimidin-7-yl)-1H-indole-4-carbonitrile] | 890
N#Cc1cccc2[nH]cc(-c3ncc4c(N5CCN(C(=O)/C(F)=C/c6nccs6)CC5)nc(OC[C@@]56CCCN5C[C@H](F)C6)nc4c3F)c12 [Compound 134, 3-(8-fluoro-4-(4-((Z)-2-fluoro-3-(thiazol-2-yl)acryloyl)piperazin-1-yl)-2-(((2R, 7aS)-2-fluorotetrahydro-1H-pyrrolizin-7a(5H)-yl)methoxy)pyrido[4,3-d]pyrimidin-7-yl)-1H-indole-4-carbonitrile] | 970
C#Cc1c(F)ccc2cc(O)cc(-c3ncc4c(N5C[C@H]6CC[C@@H](C5)N6C(=O)/C(F)=C/c5cncc(C)n5)nc(OC[C@@]56CCCN5C[C@H](F)C6)nc4c3F)c12 [Example 26, (Z)-1-((1R, 5S)-3-(7-(8-ethynyl-7-fluoro-3-hydroxynaphthalen-1-yl)-8-fluoro-2-(((2R, 7aS)-2-fluorotetrahydro-1H-pyrrolizin-7a(5H)-yl)methoxy)pyrido[4,3-d]pyrimidin-4-yl)-3,8-diazabicyclo[3.2.1]octan-8-yl)-2-fluoro-3-(6-methylpyrazin-2-yl)prop-2-en-1-one] | 170
C#Cc1c(F)ccc2cc(O)cc(-c3ncc4c(N5CCN(C(=O)/C(F)=C/c6ccccn6)CC5)nc(OC[C@@]56CCCN5C[C@H](F)C6)nc4c3F)c12 [Example 27, (Z)-1-(4-(7-(8-ethynyl-7-fluoro-3-hydroxynaphthalen-1-yl)-8-fluoro-2-(((2R, 7aS)-2-fluorotetrahydro-1H-pyrrolizin-7a(5H)-yl)methoxy)pyrido[4,3-d]pyrimidin-4-yl)piperazin-1-yl)-2-fluoro-3-(pyridin-2-yl)prop-2-en-1-one] | 3
C#Cc1cccc2cccc(-c3ncc4c(N5CCN(C(=O)/C(F)=C/c6ccccn6)CC5)nc(OC[C@@]56CCCN5C[C@H](F)C6)nc4c3F)c12 [Example 29, (Z)-1-(4-(7-(8-ethynylnaphthalen-1-yl)-8-fluoro-2-(((2R, 7aS)-2-fluorotetrahydro-1H-pyrrolizin-7a(5H)-yl)methoxy)pyrido[4,3-d]pyrimidin-4-yl)piperazin-1-yl)-2-fluoro-3-(pyridin-2-yl)prop-2-en-1-one] | 100
Cc1ccc2[nH]ncc2c1-c1ncc2c(N3CCN(C(=O)/C(F)=C/c4ccccn4)CC3)nc(OC[C@@]34CCCN3C[C@H](F)C4)nc2c1F [Example 30, (Z)-2-fluoro-1-(4-(8-fluoro-2-(((2R, 7aS)-2-fluorotetrahydro-1H-pyrrolizin-7a(5H)-yl)methoxy)-7-(5-methyl-1H-indazol-4-yl)pyrido[4,3-d]pyrimidin-4-yl)piperazin-1-yl)-3-(pyridin-2-yl)prop-2-en-1-one] | 470
C#Cc1c(F)ccc2cccc(-c3ncc4c(N5CCN(C(=O)/C(F)=C/c6ccccn6)CC5)nc(OC[C@@]56CCCN5C[C@H](F)C6)nc4c3F)c12 [Example 31, (Z)-1-(4-(7-(8-ethynyl-7-fluoronaphthalen-1-yl)-8-fluoro-2-(((2R, 7aS)-2-fluorotetrahydro-1H-pyrrolizin-7a(5H)-yl)methoxy)pyrido[4,3-d]pyrimidin-4-yl)piperazin-1-yl)-2-fluoro-3-(pyridin-2-yl)prop-2-en-1-one] | 64
N#CC[C@H]1CN(c2nc(OC[C@@]34CCCN3C[C@H](F)C4)nc3c(F)c(-c4ccccc4C(F)(F)F)ncc23)CCN1C(=O)/C(F)=C/c1ccccn1 [Example 33, 2-((S)-4-(8-fluoro-2-(((2R, 7aS)-2-fluorotetrahydro-1H-pyrrolizin-7a(5H)-yl)methoxy)-7-(2-(trifluoromethyl)phenyl)pyrido[4,3-d]pyrimidin-4-yl)-1-((Z)-2-fluoro-3-(pyridin-2-yl)acryloyl)piperazin-2-yl)acetonitrile] | 75
N#CC[C@H]1CN(c2nc(OC[C@@]34CCCN3C[C@H](F)C4)nc3c(F)c(-c4csc5ccccc45)ncc23)CCN1C(=O)/C(F)=C/c1ccccn1 [Example 35, 2-((S)-4-(7-(benzo[b]thiophen-3-yl)-8-fluoro-2-(((2R, 7aS)-2-fluorotetrahydro-1H-pyrrolizin-7a(5H)-yl)methoxy)pyrido[4,3-d]pyrimidin-4-yl)-1-((Z)-2-fluoro-3-(pyridin-2-yl)acryloyl)piperazin-2-yl)acetonitrile] | 430
Cn1ncc2cccc(-c3ncc4c(N5CCN(C(=O)/C(F)=C/c6ccccn6)CC5)nc(OC[C@@]56CCCN5C[C@H](F)C6)nc4c3F)c21 [Example 38, (Z)-2-fluoro-1-(4-(8-fluoro-2-(((2R, 7aS)-2-fluorotetrahydro-1H-pyrrolizin-7a(5H)-yl)methoxy)-7-(1-methyl-1H-indazol-7-yl)pyrido[4,3-d]pyrimidin-4-yl)piperazin-1-yl)-3-(pyridin-2-yl)prop-2-en-1-one] | 4700

Other lines, results leading:

IC50 [nM] | Structure (SMILES)
180 | CN1CCC[C@H]1COc1nc(N2CCN(C(=O)/C(F)=C/c3nccs3)[C@@H](CC#N)C2)c2cnc(-c3cc(O)ccc3F)c(F)c2n1 [Example 23, 2-((S)-1-((Z)-2-fluoro-3-(thiazol-2-yl)acryloyl)-4-(8-fluoro-7-(2-fluoro-5-hydroxyphenyl)-2-(((S)-1-methylpyrrolidin-2-yl)methoxy)pyrido[4,3-d]pyrimidin-4-yl)piperazin-2-yl)acetonitrile]
110 | CCc1cccc2cccc(-c3ncc4c(N5CCN(C(=O)/C(F)=C/c6nccs6)[C@@H](CC#N)C5)nc(OC[C@@H]5CCCN5C)nc4c3F)c12 [Example 24, 2-((S)-4-(7-(8-ethylnaphthalen-1-yl)-8-fluoro-2-(((S)-1-methylpyrrolidin-2-yl)methoxy)pyrido[4,3-d]pyrimidin-4-yl)-1-((Z)-2-fluoro-3-(thiazol-2-yl)acryloyl)piperazin-2-yl)acetonitrile]
290 | C#Cc1cccc2cccc(-c3ncc4c(N5CCN(C(=O)/C(F)=C/c6ccccn6)CC5)nc(OC[C@@H]5CCCN5C)nc4c3F)c12 [Example 25, (S,Z)-1-(4-(7-(8-ethynylnaphthalen-1-yl)-8-fluoro-2-((1-methylpyrrolidin-2-yl)methoxy)pyrido[4,3-d]pyrimidin-4-yl)piperazin-1-yl)-2-fluoro-3-(pyridin-2-yl)prop-2-en-1-one]
76 | N#CC[C@H]1CN(c2nc(OC[C@@]34CCCN3C[C@H](F)C4)nc3c(F)c(-c4ccccc4C(F)(F)F)ncc23)CCN1C(=O)/C(F)=C/c1nccs1 [Example 32, 2-((S)-4-(8-fluoro-2-(((2R, 7aS)-2-fluorotetrahydro-1H-pyrrolizin-7a(5H)-yl)methoxy)-7-(2-(trifluoromethyl)phenyl)pyrido[4,3-d]pyrimidin-4-yl)-1-((Z)-2-fluoro-3-(thiazol-2-yl)acryloyl)piperazin-2-yl)acetonitrile]
400 | N#CC[C@H]1CN(c2nc(OC[C@@]34CCCN3C[C@H](F)C4)nc3c(F)c(-c4csc5ccccc45)ncc23)CCN1C(=O)/C(F)=C/c1nccs1 [Example 34, 2-((S)-4-(7-(benzo[b]thiophen-3-yl)-8-fluoro-2-(((2R, 7aS)-2-fluorotetrahydro-1H-pyrrolizin-7a(5H)-yl)methoxy)pyrido[4,3-d]pyrimidin-4-yl)-1-((Z)-2-fluoro-3-(thiazol-2-yl)acryloyl)piperazin-2-yl)acetonitrile]
150 | CN1CCC[C@H]1COc1nc(N2CCN(C(=O)/C(F)=C/c3ccccn3)[C@@H](CC#N)C2)c2cnc(-c3cccc4ccc(F)cc34)c(F)c2n1 [Example 36, 2-((S)-1-((Z)-2-fluoro-3-(pyridin-2-yl)acryloyl)-4-(8-fluoro-7-(7-fluoronaphthalen-1-yl)-2-(((S)-1-methylpyrrolidin-2-yl)methoxy)pyrido[4,3-d]pyrimidin-4-yl)piperazin-2-yl)acetonitrile]
130 | CN1CCC[C@H]1COc1nc(N2CCN(C(=O)/C(F)=C/c3nccs3)[C@@H](CC#N)C2)c2cnc(-c3cccc4ccc(F)cc34)c(F)c2n1 [Example 37, 2-((S)-1-((Z)-2-fluoro-3-(thiazol-2-yl)acryloyl)-4-(8-fluoro-7-(7-fluoronaphthalen-1-yl)-2-(((S)-1-methylpyrrolidin-2-yl)methoxy)pyrido[4,3-d]pyrimidin-4-yl)piperazin-2-yl)acetonitrile]
